{
  "source": "paper PMC6030159",
  "about": "(Scientific Reports, 2018)",
  "key": {"[1]": {"test_system": "T1, MYC:MAX", "T1 construct": "fused to full length MYC (MYC-GLuc-C) and MAX (MAX-GLuc-N), respectively; expressed in transfected cells; host or cells: HEK293", "assay": "Gaussia luciferase complementation (GLuc) MYC:MAX", "type": "cell-based, human", "details": "25 μM, 17 hours, HEK293 cells", "experimental": "The protein fragment complementation assay using the Gaussia luciferase has been described. 0.2–0.4 μg of each GLuc-construct (see Supplementary Information) together with 0.05–0.2 μg pCMV-Luc (Firefly luciferase) were transiently transfected into HEK293 or COS-7 cells in 6-well plates. 24 hours later cells were treated with compound (10–25 μM) or DMSO. After another 17 hours, the cells were harvested and lyzed in passive lysis buffer (Promega) supplemented with complete protease inhibitor (Roche). After 60 min incubation at room temperature 20 μM D-luciferin was added (substrate of Firefly luciferase) and luminescence was measured in a Lumat LB9501 (Berthold) or OmegaFluostar (BMG Labtech) luminometer. Directly after, Gaussia luciferase substrate Coelenterazine (Promega) was added to a final concentration of 20 μM in a mixture with “Stop n’ Glow” (Promega) and the luciferase activity was measured. The ratio between Gaussia and Firefly luciferase values were calculated and normalized to DMSO-treated control cells."}, "[2]": {"test_system": "lung tumor", "set-up": "method as in PMID 23824742", "details": "cited from earlier work"}, "[3]": {"test_system": "MYCN and MAX proteins", "assay": "Western blot of MYCN and MAX in SK-N-DZ and Kelly cells", "type": "cell-based", "details": "2.5 µM, 17 hours", "experimental": "These assays were performed essentially as described in[67],[68]. […] C) MST of labeled MYC (approximately 200 nM) titrated with MYCMI-6 as indicated. Data are shown as mean ± standard deviation of 5 biological repeats. Supplemental Figure S5. Characterization of the binding of MYCMI-6 and other MYC:MAX inhibitory compounds on MYC and different control proteins by surface plasmon resonance (SPR). All sensorgrams are reference surface subtracted. A) SPR assay of MYCMI-6 injected over immobilized MYC in an equilibrium binding experiment where the theoretical Rmax is 23 RU. B) SPR assay of KJ-Pyr-9 injected over immobilized MYC. Theoretical Rmax is 29 RU. C) Sensorgram of MAX SPR assay. MYCMI-6 was injected at various concentrations over immobilized MAX bHLHZip (theoretical Rmax of 24 RU). D) Sensorgram of MAD SPR assay. MYCMI-6 was injected at various concentrations over immobilized GST-MAD bHLHZip (theoretical Rmax of 24 RU). E) Sensorgram of the BCL-XL SPR assay. MYCMI-6 was injected at various concentrations over immobilized BCL-XL (theoretical Rmax of 14 RU). F) Sensorgram of the BSA SPR assay. MYCMI-6 was injected at various concentrations over immobilized BSA (theoretical Rmax of 5 RU). Supplemental Figure S6. Expression of MYCN and MAX proteins after MYCMI-6 treatment in MYCN-amplified neuroblastoma cells. […]"}, "[4]": {"test_system": "MYC/MYCN target genes", "assay": "RT-qPCR of MYC/MYCN target genes in Kelly cells", "type": "cell-based", "details": "2.5 μM, 24 hours", "experimental": "(§1) These assays were performed essentially as described in[67],[68]. For further information on immunohistochemistry, and on primers and antibodies, see Supplementary Information."}, "[5]": {"test_system": "HO15.19 (MYC knockout) Rat1 fibroblasts", "assay": "WST-1 growth assay, HO15.19 (MYC knockout) Rat1 fibroblasts", "type": "cell-based, rat", "experimental": "Cell proliferation assays. Cell growth and viability was estimated in triplicates with WST-1\n(Roche) or Resazurin sodium salt (Sigma-Aldrich) assays in medium at 37°C and 5% CO 2 for\n2 hours after which absorbance or fluorescence, respectively, was measured with an Omega\nFluostar (BMG Labtech) in a 96 well plate format. […]\n0.7% agarose. […]"}, "[6]": {"test_system": "normal IMR-90 and BJ human fibroblasts", "assay": "Viable/dead cell counting, normal fibroblasts", "type": "cell-based", "details": "12.5 μM, 24 hours", "experimental": "Triton-X-114 (Sigma). Truncated p53 core protein was a kind gift from Klas Wiman, CCK, […]\nCell proliferation assays. Cell growth and viability was estimated in triplicates with WST-1 (Roche) or Resazurin sodium salt (Sigma-Aldrich) assays in medium at 37°C and 5% CO 2 for 2 hours after which absorbance or fluorescence, respectively, was measured with an Omega Fluostar (BMG Labtech) in a 96 well plate format. Cell counting was done in 96 well plates with CellTracker Green (ThermoFisher) for 30 min in the incubator, after which DAPI was added for 5 min. Images were taken in the green (FITC) and blue (DAPI) channels using a fluorescence microscope (ImageXpress Micro, Molecular Devices). […] After 16 days, the colonies were stained with 100 µg/ml MTT (Sigma) overnight and colonies were counted.\nImmunohistochemistry. Apoptosis was visualized at the single-cell level on tumor cryosections using the TUNEL method using the In Situ Cell Death Detection Fluorescein-Roche kit and analyzed by fluorescence microscopy. […] Cell proliferation and microvascular density (MVD) were evaluated through Ki67 and CD31staining, respectively, on tumor cryosections and detected by immunofluoresence. […] For quantification, areas with positive TUNEL and Ki67 staining were measured using Image J software. For the analysis of MVD, the number of vessel structures per microscopic field was calculated."}, "[7]": {"test_system": "T2, endogenous MYC:MAX", "T2 construct": "endogenous in cells; host or cells: MDA-MB231", "assay": "Coimmunoprecipitation of MAX with MYC, MDA-MB231 cells", "type": "cell-based", "details": "5 μM, 3 hours post treatment", "experimental": "as §1"}},
  "note": "“Also recorded” adds a separate entry of the source.",
  "data": [
    {"smiles": "CCOc1ccc2nc3cc(/N=N/c4ccc(N)nc4N)ccc3c(N)c2c1", "note": "[MYCMI-6]", "values": [
      {"measurement": "MYC:MAX GLuc activity", "setting": "[1]", "result": "most potent"},
      {"measurement": "lung tumor growth in mouse xenograft model", "setting": "[2]", "result": "inhibit lung tumor growth"},
      {"measurement": "expression of MYCN and MAX (western blot)", "setting": "[3]", "result": "maintaining the expression"},
      {"measurement": "expression of MYC/MYCN target genes", "setting": "[4]", "result": "significantly inhibited"},
      {"measurement": "growth of MYC null (HO15.19) cells", "setting": "[5]", "result": "did not significantly affect growth"},
      {"measurement": "number of viable cells and percentage of dead cells, normal fibroblasts", "setting": "[6]", "result": "only marginal effects; also recorded: not cytotoxic"},
      {"measurement": "coimmunoprecipitation of endogenous MYC:MAX", "setting": "[7]", "result": "reduced the MYC:MAX protein interaction"}
    ]}
  ]
}
